Assay results: the supplement of paper PMC6045584
± gives the standard deviation of the averaged measurements.

Columns and labels:
[1] = compound: T1, C=CC(=O)Nc1cc2c(Nc3ccc(F)c(Cl)c3)ncnc2cc1OCCCN1CCOCC1 [CANERTINIB]; test: surviving fraction relative to DMSO-only wells; higher = less growth inhibition; details: exposure time: 5 days
Outline: (§1)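 Viability was determined by CellTiter-Glo luminescence, expressed as surviving fraction normalised to the median of DMSO-only wells. The cells were log-phase tumour cell lines seeded at 250–500 per well in 384-well plates and, after 24 hours, exposed continuously for five days to inhibitors at 0.5, 1, 5, 10, 50, 100, 500 and 1000 nM. Three screens per line were run, keeping only lines with replicate Pearson r >0.7 and median Z' >0.3.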

[2] = compound: T2, CC1(C)CC(=O)c2c(C(F)(F)F)nn(-c3ccc(C(N)=O)c(N[C@H]4CC[C@H](OC(=O)CN)CC4)c3)c2C1 [SNX-5422]; test: as above; details: exposure time: 5 days
Outline: as §1

[3] = compound: T3, CCCCCCCCCCCCCCCC(=O)Nc1ccn([C@@H]2O[C@H](CO)[C@@H](O)[C@@H]2C#N)c(=O)n1 [SAPACITABINE]; test: as above; details: exposure time: 5 days
Outline: as §1

[4] = compound: T4, CC[C@@H]1C(=O)N(C)c2cnc(Nc3ccc(C(=O)NC4CCN(C)CC4)cc3OC)nc2N1C1CCCC1 [BI-2536]; test: as above; details: exposure time: 5 days
Outline: as §1

[5] = compound: T5, CN(C)C/C=C/C(=O)Nc1cc2c(Nc3ccc(F)c(Cl)c3)ncnc2cc1O[C@H]1CCOC1 [AFATINIB]; test: as above; details: exposure time: 5 days
Outline: as §1

[6] = compound: T6, CNC(=O)c1ccc(N2C(=S)N(c3ccc(C#N)c(C(F)(F)F)c3)C(=O)C2(C)C)cc1F [MDV3100]; test: as above; details: exposure time: 5 days
Outline: as §1

[7] = compound: Cn1cc(C2=Nc3cc(NC(=O)C(N)C4CCCCC4)cc4c3C2=CNNC4=O)cn1; test: as above; details: exposure time: 5 days
Outline: as §1

[8] = compound: T7, Nc1nc2[nH]cnc2c(=S)[nH]1 [TIOGUANINE]; test: as above; details: exposure time: 5 days
Outline: as §1

[9] = compound: T1, CANERTINIB; test: area under dose-response curve of surviving fraction (unscaled, Aref=0) (surviving fraction x log10(nM)); higher = more resistant; details: exposure time: 5 days; dose range 0.5-1000 nM
Outline: (§2)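 Each tumour cell line was screened three times in 384-well plates, receiving eight inhibitor concentrations from 0.5 to 1000 nM for five days. CellTiter-Glo luminescence gave viability, normalised to DMSO-only wells. Using the drc R package, surviving fractions were fitted with 3-parameter logistic dose-response curves, and the unscaled activity area over log10 dose (Aref = 0) was taken as the area under the curve.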

[10] = compound: T2, SNX-5422; test: as above; details: exposure time: 5 days; dose range 0.5-1000 nM
Outline: as §2

[11] = compound: T3, SAPACITABINE; test: as above; details: exposure time: 5 days; dose range 0.5-1000 nM
Outline: as §2

[12] = compound: T4, BI-2536; test: as above; details: exposure time: 5 days; dose range 0.5-1000 nM
Outline: as §2

[13] = compound: T5, AFATINIB; test: as above; details: exposure time: 5 days; dose range 0.5-1000 nM
Outline: as §2

[14] = compound: T6, MDV3100; test: as above; details: exposure time: 5 days; dose range 0.5-1000 nM
Outline: as §2

[15] = compound: T7, TIOGUANINE; test: as above; details: exposure time: 5 days; dose range 0.5-1000 nM
Outline: as §2

For SCC47 HEADNECK, the surviving fraction ([1]; 0.5 nM) was 0.828 ± 0.025, the surviving fraction ([1]; 1 nM) was 0.921 ± 0.088 and the surviving fraction ([1]; 5 nM) was 0.881 ± 0.048. The surviving fraction ([1]; 10 nM) was 0.889 ± 0.028, the surviving fraction ([1]; 50 nM) was 0.9577 ± 0.0083 and the surviving fraction ([1]; 100 nM) was 0.805 ± 0.032. For the same test system, the surviving fraction ([1]; 500 nM) was 0.681 ± 0.015, the surviving fraction ([1]; 1000 nM) was 0.432 ± 0.044 and the surviving fraction ([2]; 0.5 nM) was 1.09 ± 0.084. For the same test system, the surviving fraction ([2]; 1 nM) was 1.17 ± 0.07, the surviving fraction ([2]; 5 nM) was 1.14 ± 0.069 and the surviving fraction ([2]; 10 nM) was 1.12 ± 0.048. The surviving fraction ([2]; 50 nM) was 0.483 ± 0.0098, the surviving fraction ([2]; 100 nM) was 0.184 ± 0.015 and the surviving fraction ([2]; 500 nM) was 0.0747 ± 0.0047. It also gave a surviving fraction ([2]; 1000 nM) of 0.071 ± 0.0027, a surviving fraction ([3]; 0.5 nM) of 0.937 ± 0.093 and a surviving fraction ([3]; 1 nM) of 0.939 ± 0.063. For the same test system, the surviving fraction ([3]; 5 nM) was 0.982 ± 0.063, the surviving fraction ([3]; 10 nM) was 0.948 ± 0.072 and the surviving fraction ([3]; 50 nM) was 1.05 ± 0.057. It also gave a surviving fraction ([3]; 100 nM) of 0.988 ± 0.079, a surviving fraction ([3]; 500 nM) of 0.71 ± 0.033 and a surviving fraction ([3]; 1000 nM) of 0.597 ± 0.0027. For the same test system, the surviving fraction ([4]; 0.5 nM) was 1.05 ± 0.095, the surviving fraction ([4]; 1 nM) was 1.01 ± 0.066 and the surviving fraction ([4]; 5 nM) was 0.455 ± 0.013. For the same test system, the surviving fraction ([4]; 10 nM) was 0.367 ± 0.034, the surviving fraction ([4]; 50 nM) was 0.403 ± 0.046 and the surviving fraction ([4]; 100 nM) was 0.464 ± 0.045. It also gave a surviving fraction ([4]; 500 nM) of 0.437 ± 0.018, a surviving fraction ([4]; 1000 nM) of 0.356 ± 0.02 and a surviving fraction ([5]; 0.5 nM) of 1.05 ± 0.021. For the same test system, the surviving fraction ([5]; 1 nM) was 0.98 ± 0.078, the surviving fraction ([5]; 5 nM) was 0.88 ± 0.11 and the surviving fraction ([5]; 10 nM) was 0.707 ± 0.037. The surviving fraction ([5]; 50 nM) was 0.629 ± 0.064, the surviving fraction ([5]; 100 nM) was 0.604 ± 0.034 and the surviving fraction ([5]; 500 nM) was 0.546 ± 0.026. It also gave a surviving fraction ([5]; 1000 nM) of 0.373 ± 0.014, a surviving fraction ([6]; 0.5 nM) of 0.936 ± 0.15 and a surviving fraction ([6]; 1 nM) of 0.826 ± 0.021. The surviving fraction ([6]; 5 nM) was 1 ± 0.04, the surviving fraction ([6]; 10 nM) was 1.05 ± 0.21 and the surviving fraction ([6]; 50 nM) was 1.09 ± 0.17. The surviving fraction ([6]; 100 nM) was 1.03 ± 0.14, the surviving fraction ([6]; 500 nM) was 0.906 ± 0.04 and the surviving fraction ([6]; 1000 nM) was 0.829 ± 0.11. It also gave a surviving fraction ([7]; 0.5 nM) of 1.02 ± 0.015, a surviving fraction ([7]; 1 nM) of 1.03 ± 0.13 and a surviving fraction ([7]; 5 nM) of 1.1 ± 0.065. The surviving fraction ([7]; 10 nM) was 1.08 ± 0.11, the surviving fraction ([7]; 50 nM) was 1 ± 0.027 and the surviving fraction ([7]; 100 nM) was 1.01 ± 0.054. For the same test system, the surviving fraction ([7]; 500 nM) was 0.981 ± 0.011, the surviving fraction ([7]; 1000 nM) was 0.81 ± 0.094 and the surviving fraction ([8]; 0.5 nM) was 0.796 ± 0.02. For the same test system, the surviving fraction ([8]; 1 nM) was 0.834 ± 0.05, the surviving fraction ([8]; 5 nM) was 0.969 ± 0.043 and the surviving fraction ([8]; 10 nM) was 0.961 ± 0.061. For the same test system, the surviving fraction ([8]; 50 nM) was 0.98 ± 0.035, the surviving fraction ([8]; 100 nM) was 0.966 ± 0.045 and the surviving fraction ([8]; 500 nM) was 0.854 ± 0.082. The surviving fraction ([8]; 1000 nM) was 0.803 ± 0.039, the “area under dose-response curve” value [9] was 2.83 and the “area under dose-response curve” value [10] was 2.08. The “area under dose-response curve” value [11] was 3.12, the “area under dose-response curve” value [12] was 1.87 and the “area under dose-response curve” value [13] was 2.35. For the same test system, the “area under dose-response curve” value [14] was 3.22 and the “area under dose-response curve” value [15] was 2.97.
